Holding throughout (format): biochemical
One test addresses T1, c-Abl (Homo sapiens, UniProt P00519).
T1 construct: The His-tagged kinase domain of c-Abl is cloned and expressed in the baculovirus/Sf9 system; His; made in house; host or cells: baculovirus/Sf9
T1 sequence (P00519 242-493 limits assumed): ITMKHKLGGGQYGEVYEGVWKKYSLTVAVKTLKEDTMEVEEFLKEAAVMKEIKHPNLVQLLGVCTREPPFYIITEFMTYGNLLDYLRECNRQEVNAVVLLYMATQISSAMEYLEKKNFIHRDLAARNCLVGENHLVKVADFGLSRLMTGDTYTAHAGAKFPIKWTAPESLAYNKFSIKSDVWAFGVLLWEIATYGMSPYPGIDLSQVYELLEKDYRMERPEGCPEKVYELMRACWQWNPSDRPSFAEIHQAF
Nature of the test: Test for activity against c-Abl protein tyrosine kinase (filter binding assay). The method, boiled down:
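His-tagged c-Abl kinase domain expressed in baculovirus/Sf9 cells; 50 ng enzyme with 30 μg/mL poly-AEKY, 5 μM ATP plus [γ-33P]-ATP, pH 7.5 Tris, 1% DMSO. Stopped with EDTA, captured on PVDF membrane and counted by scintillation. Values are % inhibition at 10 μM.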

Another test deals with KDR (Homo sapiens, UniProt P35968). Nature of the test: Enzymatic KDR in vitro inhibition. The method in brief:
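KDR kinase inhibition was measured in vitro with a radiometric filter-binding method. The kinase was incubated for 10 minutes at room temperature with poly(Glu,Tyr) 4:1 and 8 μM [^33P]-ATP (0.2 μCi) in 20 mM Tris.HCl pH 7.5 buffer with MnCl2, MgCl2, vanadate, PEG 20000, dithiothreitol and 1% DMSO. EDTA stopped the reaction, aliquots were spotted onto PVDF membranes, and after acid and ethanol washes radioactivity was counted. Results are given as % inhibition at 10 μM.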

For the next test, the target named is T2, Flt3 (Homo sapiens, UniProt P36888).
T2 sequence (P36888 27-993): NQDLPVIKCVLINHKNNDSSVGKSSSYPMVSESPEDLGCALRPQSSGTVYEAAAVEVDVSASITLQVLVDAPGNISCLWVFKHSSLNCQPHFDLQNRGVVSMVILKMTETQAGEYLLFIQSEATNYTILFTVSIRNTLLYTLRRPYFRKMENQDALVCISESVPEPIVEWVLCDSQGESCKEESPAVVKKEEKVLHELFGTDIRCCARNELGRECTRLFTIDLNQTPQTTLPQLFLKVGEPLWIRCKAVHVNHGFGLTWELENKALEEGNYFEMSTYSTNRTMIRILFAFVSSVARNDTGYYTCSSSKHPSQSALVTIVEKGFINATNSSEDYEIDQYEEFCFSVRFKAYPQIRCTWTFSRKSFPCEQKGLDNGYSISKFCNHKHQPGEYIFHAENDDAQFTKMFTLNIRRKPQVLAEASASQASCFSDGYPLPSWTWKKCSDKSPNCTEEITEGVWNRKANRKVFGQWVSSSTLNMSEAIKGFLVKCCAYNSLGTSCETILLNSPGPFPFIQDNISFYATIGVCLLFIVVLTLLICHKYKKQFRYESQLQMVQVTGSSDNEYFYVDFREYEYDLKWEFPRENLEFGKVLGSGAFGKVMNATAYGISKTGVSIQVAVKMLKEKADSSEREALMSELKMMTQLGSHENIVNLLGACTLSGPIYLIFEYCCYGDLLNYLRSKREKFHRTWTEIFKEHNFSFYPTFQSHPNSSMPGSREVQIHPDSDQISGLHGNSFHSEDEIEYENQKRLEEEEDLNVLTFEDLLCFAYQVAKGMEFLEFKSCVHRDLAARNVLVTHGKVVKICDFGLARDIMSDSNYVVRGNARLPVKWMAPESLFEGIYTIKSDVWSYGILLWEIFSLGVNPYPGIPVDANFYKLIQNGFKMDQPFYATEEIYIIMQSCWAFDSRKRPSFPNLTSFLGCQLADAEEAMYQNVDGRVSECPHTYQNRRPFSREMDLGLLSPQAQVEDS
Put plainly: Enzymatic Flt3 in vitro inhibition. The note with it: % inhibition at 10 μM. The procedure:
Enzymatic (c-Abl, KDR, Flt3) in vitro inhibition data are presented as % inhibition at 10 μM. The measurements are made as described above in the general description.

Chain of KDR (P35968 20-1356): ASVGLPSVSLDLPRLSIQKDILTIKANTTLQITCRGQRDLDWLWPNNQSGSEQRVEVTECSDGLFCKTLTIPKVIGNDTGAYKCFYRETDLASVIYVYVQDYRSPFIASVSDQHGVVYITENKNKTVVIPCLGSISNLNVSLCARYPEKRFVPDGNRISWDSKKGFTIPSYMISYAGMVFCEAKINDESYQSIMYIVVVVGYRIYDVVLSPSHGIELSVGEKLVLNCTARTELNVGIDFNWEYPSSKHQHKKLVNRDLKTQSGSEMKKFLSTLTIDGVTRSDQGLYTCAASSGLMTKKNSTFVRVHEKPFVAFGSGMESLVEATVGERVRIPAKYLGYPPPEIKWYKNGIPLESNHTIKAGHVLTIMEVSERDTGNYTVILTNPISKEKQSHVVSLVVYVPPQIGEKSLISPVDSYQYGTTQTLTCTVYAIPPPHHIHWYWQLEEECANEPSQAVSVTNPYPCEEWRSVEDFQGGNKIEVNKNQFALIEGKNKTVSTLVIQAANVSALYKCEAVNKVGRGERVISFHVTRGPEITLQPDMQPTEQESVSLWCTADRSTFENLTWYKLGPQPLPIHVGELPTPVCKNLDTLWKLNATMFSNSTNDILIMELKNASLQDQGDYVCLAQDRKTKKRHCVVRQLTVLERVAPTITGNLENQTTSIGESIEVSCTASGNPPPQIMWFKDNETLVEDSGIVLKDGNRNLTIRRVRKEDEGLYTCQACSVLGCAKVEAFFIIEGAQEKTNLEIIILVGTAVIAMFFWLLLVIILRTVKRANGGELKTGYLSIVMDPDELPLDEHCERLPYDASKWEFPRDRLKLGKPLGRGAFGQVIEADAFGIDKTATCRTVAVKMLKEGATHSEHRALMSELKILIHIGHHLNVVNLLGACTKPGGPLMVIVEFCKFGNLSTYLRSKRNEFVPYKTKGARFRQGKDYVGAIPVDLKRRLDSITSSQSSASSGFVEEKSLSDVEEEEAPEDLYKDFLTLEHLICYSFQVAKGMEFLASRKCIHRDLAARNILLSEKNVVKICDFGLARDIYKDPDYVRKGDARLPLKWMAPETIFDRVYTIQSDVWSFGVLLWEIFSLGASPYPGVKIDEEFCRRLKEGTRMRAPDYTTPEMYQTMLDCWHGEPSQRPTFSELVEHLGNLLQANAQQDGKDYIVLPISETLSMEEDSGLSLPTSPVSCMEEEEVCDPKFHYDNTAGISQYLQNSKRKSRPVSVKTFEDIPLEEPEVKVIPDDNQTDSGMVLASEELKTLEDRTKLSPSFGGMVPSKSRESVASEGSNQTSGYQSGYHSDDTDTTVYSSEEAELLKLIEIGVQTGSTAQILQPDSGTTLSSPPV

For orientation: inhibition means the share of the control response that was lost under treatment. Low values mean little suppression, high ones strong suppression. For `CCN(CC)c1cccc(NC(=O)c2ccc(C)c(Nc3nccc(-c4cccnc4)n3)c2)c1` [Example 67, N-[3-(Diethylamino)phenyl]-4-methyl-3-[[4-(3-pyridinyl)-2-Pyrimidinyl]amino]benzamide], the inhibition at 10 µM stood at 98% on c-Abl and 88% on KDR. Also, the “Flt3 %@10 μM” value on Flt3 was found to be 41%.
